Test systems include TK-10; MDA-MB-435; SK-OV-3; OVCAR-4; HCC 2998; KM12; HOP-62; UO-31; K562; Malme-3M; HCT-15; LOX IMVI; MCF7; ACHN; OVCAR-5; BT-549; U-251; RXF 393; HT-29; SF-268.
What all share (assay): NCI anticancer screen, dose series, 48 h

The structures appear in SMILES notation.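 The compound was tested at five concentrations on cells cultured in 96-well plates, with a 48-hour exposure period. At the GI50, growth is halved.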 Active and inactive are the calls of the source. Rule as the data show it: active = GI50 up to about 1.1 µM and inactive = higher. Where only a bound is given, the exact number is not on record here.

On to `CC(=O)Nc1cc(C(=O)Nc2cc(C(=O)N3CC(CCl)c4c3cc(N)c3ccccc43)nn2C)nn1C` (configuration not stated), for which the GI50 in the experiment with TK-10 was 0.251 µM (active); with MDA-MB-435 it was 0.138 µM (active); with SK-OV-3, 0.0362 µM (active); in the experiment on OVCAR-4, 0.171 µM (active); with HCC 2998 it was 0.115 µM (active); in the experiment on KM12 it was 0.188 µM (active). Further, the GI50 in the experiment with HOP-62 is 0.101 µM (active); in the experiment with UO-31, 0.294 µM (active); with K562 it was 0.0381 µM (active); in the experiment with Malme-3M, 0.115 µM (active); in the experiment with HCT-15 it was 0.571 µM; in the experiment on LOX IMVI, 0.0117 µM (active). For the same molecule, the GI50 is 0.168 µM (active) with MCF7; < 0.0148 µM (active) in the experiment on ACHN; 0.31 µM (active) with OVCAR-5; 0.185 µM (active) in the experiment with BT-549; 0.0194 µM (active) in the experiment on U-251; 0.0115 µM (active) with RXF 393. The values for the GI50 with HT-29 and in the experiment with SF-268 were 0.216 µM (active) and < 0.0132 µM (active), respectively.

On to `NCCSCCC(=O)O`, for which the GI50 in the experiment with TK-10 was > 67.1 µM (inactive); in the experiment with MDA-MB-435, > 100 µM (inactive); with SK-OV-3, > 65.8 µM (inactive); with OVCAR-4, > 100 µM (inactive); with HCC 2998, 28.6 µM (inactive); with KM12, > 82.8 µM (inactive). Moreover, the GI50 is > 68.5 µM (inactive) in the experiment on HOP-62; > 100 µM (inactive) with UO-31; 31.8 µM (inactive) in the experiment on K562; > 100 µM (inactive) with Malme-3M; more than 59 µM in the experiment with HCT-15; 39 µM (inactive) with LOX IMVI. Besides, the GI50 with MCF7 is > 57.1 µM (inactive); in the experiment on ACHN, > 25.6 µM (inactive); with OVCAR-5, > 100 µM (inactive); with BT-549 it was > 100 µM (inactive); in the experiment with U-251, > 44 µM (inactive); in the experiment on RXF 393, > 66.7 µM (inactive). Further, the GI50 is > 84.1 µM (inactive) with HT-29 and > 77.3 µM (inactive) in the experiment with SF-268.

Turning to `COc1cc([C@@H]2C3C(=O)c4ccccc4C3[C@@H](c3cc(OC)c(OC)c(OC)c3)C23Cc2ccccc2C3=O)cc(OC)c1OC` (some centres not stated), the GI50 with TK-10, with MDA-MB-435, with SK-OV-3, with OVCAR-4, in the experiment on HCC 2998 and with KM12 was > 100 µM (inactive) each time. In addition, the GI50 in the experiment on HOP-62 is > 100 µM (inactive); in the experiment with UO-31, > 100 µM (inactive); with K562 it was > 100 µM (inactive); in the experiment with Malme-3M, > 100 µM (inactive); with HCT-15, more than 100 µM; with LOX IMVI, > 100 µM (inactive). The GI50 in the experiment on MCF7 was 15.4 µM (inactive); with ACHN it was > 100 µM (inactive); with OVCAR-5, > 100 µM (inactive); in the experiment with BT-549 it was > 100 µM (inactive); with U-251, > 100 µM (inactive); in the experiment on RXF 393, > 100 µM (inactive). The GI50 in the experiment on HT-29 and in the experiment with SF-268 was > 100 µM (inactive) each time.

Take `O=c1ccc(=O)n(-c2ccccc2)[nH]1`: the GI50 in the experiment with TK-10, in the experiment on MDA-MB-435, with SK-OV-3, in the experiment with OVCAR-4, with HCC 2998 and with KM12 was > 100 µM (inactive) each time. Besides, the GI50 with HOP-62 is > 100 µM (inactive); in the experiment on UO-31 it was > 100 µM (inactive); in the experiment on K562, > 100 µM (inactive); with Malme-3M, > 100 µM (inactive); with HCT-15, more than 100 µM; in the experiment on LOX IMVI, > 100 µM (inactive). In addition, the GI50 in the experiment on MCF7, in the experiment on ACHN, in the experiment on OVCAR-5, in the experiment with BT-549, in the experiment on U-251 and in the experiment on RXF 393 was > 100 µM (inactive) throughout. Also, the GI50 in the experiment with HT-29 and in the experiment with SF-268 was > 100 µM (inactive) each time.

On to `O=C1c2ccccc2C(=O)[C@@]23O[C@@]12C1(Oc2cccc4cccc(c24)O1)[C@@H]1O[C@@H]1[C@@H]3O`, for which the GI50 was 11.3 µM (inactive) with TK-10; 17.2 µM (inactive) with MDA-MB-435; 15.1 µM (inactive) in the experiment on SK-OV-3; 4.19 µM (inactive) in the experiment with OVCAR-4; 6.17 µM (inactive) with HCC 2998; 14 µM (inactive) in the experiment with KM12. Further, the GI50 was 12.6 µM (inactive) in the experiment with HOP-62; 9.18 µM (inactive) in the experiment with UO-31; 2.23 µM (inactive) in the experiment on K562; 13.4 µM (inactive) in the experiment on Malme-3M; 5.01 µM with HCT-15; 4.22 µM (inactive) with LOX IMVI. The GI50 in the experiment with MCF7 is 3.66 µM (inactive); in the experiment with ACHN it was 12.5 µM (inactive); with OVCAR-5, 17.8 µM (inactive); in the experiment with BT-549, 2.9 µM (inactive); with U-251, 7.1 µM (inactive); in the experiment on RXF 393 it was 2.95 µM (inactive). Also, the GI50 is 4.94 µM (inactive) in the experiment with HT-29 and 9.68 µM (inactive) in the experiment on SF-268.

For the molecule `COc1ccc2c(c1)c(=O)c1c(NCCCN(C)C)ccc3ncn2c31`, the GI50 with TK-10 was 6.1 µM (inactive); in the experiment on MDA-MB-435, 6.05 µM (inactive); with SK-OV-3, 8.38 µM (inactive); in the experiment with OVCAR-4 it was 1.15 µM (inactive); in the experiment on HCC 2998 it was 3.05 µM (inactive); in the experiment on KM12, 1.38 µM (inactive). Moreover, the GI50 in the experiment with HOP-62 was 0.783 µM (active); in the experiment with UO-31, 2.62 µM (inactive); with K562, 2.92 µM (inactive); in the experiment with Malme-3M it was 11.6 µM (inactive); in the experiment on HCT-15, 1.44 µM; in the experiment on LOX IMVI, 1.54 µM (inactive). The GI50 is 0.714 µM (active) with MCF7; 0.659 µM (active) in the experiment with ACHN; 12.3 µM (inactive) in the experiment with OVCAR-5; 17.6 µM (inactive) in the experiment with BT-549; 1.35 µM (inactive) in the experiment with U-251; 0.366 µM (active) in the experiment on RXF 393. Moreover, the GI50 with HT-29 was 1.13 µM (inactive); with SF-268, 1.31 µM (inactive).

As for `COCN1C(=O)[C@@H]2C[C@@H](O)CN2C(=O)c2ccccc21`, the GI50 in the experiment with TK-10, in the experiment on MDA-MB-435, with SK-OV-3, with OVCAR-4, in the experiment with HCC 2998 and with KM12 was > 100 µM (inactive) throughout. The GI50 with HOP-62 was > 100 µM (inactive); in the experiment with UO-31, > 100 µM (inactive); in the experiment on K562, > 100 µM (inactive); in the experiment on Malme-3M, > 100 µM (inactive); with HCT-15 it was more than 100 µM; in the experiment with LOX IMVI, > 100 µM (inactive). For the same molecule, the GI50 in the experiment with MCF7, with ACHN, in the experiment on OVCAR-5, in the experiment on BT-549, in the experiment on U-251 and in the experiment on RXF 393 was > 100 µM (inactive) throughout. Also, the GI50 in the experiment with HT-29 and in the experiment with SF-268 was > 100 µM (inactive) throughout.

`CCCCCCCCCCCC[C@@H](O)[C@H]1CCC([C@H](O)CCCCC(=O)CCCCCCCC2=C[C@H](C)OC2=O)O1` (some centres not stated): the GI50 in the experiment with TK-10 is > 50 µM (inactive); in the experiment on MDA-MB-435, > 21.3 µM (inactive); with SK-OV-3, > 50 µM (inactive); in the experiment with OVCAR-4, > 24.9 µM (inactive); in the experiment with HCC 2998, > 50 µM (inactive); in the experiment with KM12, 13.1 µM (inactive). The GI50 with UO-31 was 7.16 µM (inactive); in the experiment on K562 it was 2.98 µM (inactive); in the experiment on Malme-3M it was > 50 µM (inactive); in the experiment on HCT-15, 17.9 µM; in the experiment with LOX IMVI it was 2.34 µM (inactive); in the experiment on MCF7 it was 2.45 µM (inactive). Also, the GI50 with ACHN is > 33.6 µM (inactive); in the experiment on OVCAR-5, > 50 µM (inactive); with BT-549 it was 9.06 µM (inactive); in the experiment with U-251 it was 13.3 µM (inactive); in the experiment on RXF 393 it was 11.6 µM (inactive); in the experiment with HT-29, 14.6 µM (inactive). For the same molecule, the GI50 in the experiment on SF-268 was 18.1 µM (inactive).

As to `O=P(O)(CN1CCN(CP(=O)(O)c2ccccc2)CCN(CP(=O)(O)c2ccccc2)CC1)c1ccccc1`, the GI50 is 92.5 µM (inactive) in the experiment on TK-10; 93.1 µM (inactive) in the experiment with MDA-MB-435; > 100 µM (inactive) with SK-OV-3; 32.1 µM (inactive) in the experiment on OVCAR-4; 78.2 µM (inactive) in the experiment with HCC 2998; 47.9 µM (inactive) in the experiment on KM12. Further, the GI50 was > 100 µM (inactive) in the experiment with HOP-62; > 100 µM (inactive) in the experiment with UO-31; > 100 µM (inactive) in the experiment on K562; 56.2 µM (inactive) in the experiment on Malme-3M; 67.3 µM (inactive) with LOX IMVI; 28.1 µM (inactive) with MCF7. For the same molecule, the GI50 with ACHN was > 100 µM (inactive); in the experiment with OVCAR-5 it was > 100 µM (inactive); in the experiment on BT-549, > 100 µM (inactive); in the experiment on U-251 it was 47.8 µM (inactive); with RXF 393 it was 80 µM (inactive); with HT-29, 26.1 µM (inactive). For the same molecule, in the experiment on SF-268, the GI50 was > 100 µM (inactive).

For the molecule `Cc1c2ccccc2c(C)n2c1nc1cc(Cl)c(Cl)cc12`, the GI50 in the experiment with TK-10, with MDA-MB-435, in the experiment on SK-OV-3, in the experiment on OVCAR-4, with HCC 2998 and in the experiment on KM12 was > 10 µM (inactive) each time. Besides, the GI50 is > 10 µM (inactive) in the experiment with HOP-62; > 10 µM (inactive) in the experiment with K562; 0.166 µM (active) in the experiment with Malme-3M; more than 10 µM in the experiment on HCT-15; 2.78 µM (inactive) in the experiment with LOX IMVI; 1.59 µM (inactive) with MCF7. Besides, the GI50 in the experiment with ACHN, in the experiment on OVCAR-5, with BT-549, in the experiment with U-251, in the experiment on RXF 393 and in the experiment with HT-29 was > 10 µM (inactive) each time. The GI50 in the experiment on SF-268 was > 10 µM (inactive).

These data come from ChEMBL document CHEMBL1201862, “PubChem BioAssay data set” (2004).
